Experimental data published in patent US20160297763A1, “Heteroaryl hydroxamic acid derivatives and their use in the treatment, amelioration or prevention of a viral disease” (priority 2011, published 2016).
Where two headings read alike, the source gives them in different places.

System: influenza A virus A/Aichi/2/68 (H3N2)
Assay: Cytopathic effect (CPE) assay H3N2
Format: cell-based, influenza A virus (H3N2) on MDCK cells
Settings: for inhibition at 2 µM: H3N2, activity conc 2 (μM per method); for CPE H3N2 reduction (%): activity conc 50 (μM per method); for inhibition at 10 µM: H3N2, activity conc 10 (μM per method); for inhibition at 1 µM: H3N2, activity conc 1 (μM per method); for inhibition at 20 µM: H3N2, activity conc 20 (μM per method)
Description: A possible measure of the […] antiviral activity of the compounds having the formula I or II is the CPE assay disclosed herein. […] In this connection, the reduction in the virus-mediated cytopathic effect (CPE) upon treatment with the compounds was calculated as follows: The cell viability of infected-treated and uninfected-treated cells was determined using an ATP-based cell viability assay (Promega). The response in relative luminescent units (RLU) of infected-untreated samples was subtracted from the response (RLU) of the infected-treated samples and then normalized to the viability of the corresponding uninfected sample resulting in % CPE reduction.
The influenza A virus (IAV) was obtained from American Tissue Culture Collection (A/Aichi/2/68 (H3N2); VR-547). Virus stocks were prepared by propagation of virus on Mardin-Darby canine kidney (MDCK; ATCC CCL-34) cells and infectious titres of virus stocks were determined by the 50% tissue culture infective dose (TCID50) analysis as described in Reed, L. J., and H. Muench. 1938, Am. J. Hyg. 27:493-497.
MDCK cells were seeded in 96-well plates at 2×10^4 cells/well using DMEM/Ham's F-12 (1:1) medium containing 10% foetal bovine serum (FBS), 2 mM L-glutamine and 1 antibiotics (all from PAA). Until infection the cells were incubated for 5 hrs at 37° C., 5.0 CO2 to form a ˜80% confluent monolayer on the bottom of the well. Each test compound was dissolved in DMSO and generally tested at 25 μM and 250 μM. In those cases where the compounds were not soluble at that concentration they were tested at the highest soluble concentration. The compounds were diluted in infection medium (DMEM/Ham's F-12 (1:1) containing 5 μg/ml trypsin, and 1% antibiotics) for a final plate well DMSO concentration of 1%. The virus stock was diluted in infection medium (DMEM/Ham's F-12 (1:1) containing 5 μg/ml Trypsin, 1% DMSO, and 1% antibiotics) to a theoretical multiplicity of infection (MOI) of 0.05.
After removal of the culture medium and one washing step with PBS, virus and compound were added together to the cells. In the wells used for cytotoxicity determination (i.e. in the absence of viral infection), no virus suspension was added. Instead, infection medium was added. Each treatment was conducted in two replicates. After incubation at 37° C., 5% CO2 for 48 hrs, each well was observed microscopically for apparent cytotoxicity, precipitate formation, or other notable abnormalities. Then, cell viability was determined using CellTiter-Glo luminescent cell viability assay (Promega). The supernatant was removed carefully and 65 μl of the reconstituted reagent were added to each well and incubated with gentle shaking for 15 min at room temperature. Then, 60 μl of the solution was transferred to an opaque plate and luminescence (RLU) was measured using Synergy HT plate reader (Biotek).
Relative cell viability values of uninfected-treated versus uninfected-untreated cells were used to evaluate cytotoxicity of the compounds. Substances with a relative viability below 80% at the tested concentration were regarded as cytotoxic and retested at lower concentrations.
Reduction in the virus-mediated cytopathic effect (CPE) upon treatment with the compounds was calculated as follows: The response (RLU) of infected-untreated samples was subtracted from the response (RLU) of the infected-treated samples and then normalized to the viability of the corresponding uninfected sample resulting in % CPE reduction.

[1] = Influenza A virus, read-out: CPE H3N2 reduction (%)
[2] = Influenza A virus, H3N2, read-out: CPE H3N2 reduction (%), activity conc 50 (μM per method)
[3] = Influenza A virus, H3N2, activity conc 5 (μM per method), read-out: CPE H3N2 reduction (%)
[4] = Influenza A virus, H3N2, activity conc 50 (μM per method), read-out: CPE H3N2 reduction (%)
[5] = Influenza A virus, H3N2, read-out: CPE H3N2 IC50

O=C(c1cc2ccccc2cn1)N(O)CCCc1ccccc1
inhibition at 2 µM [1]: 4.4%

Cc1cc(-c2sc3nc(N)[nH]c(=O)c3c2C)ccc1Cl [SAV-7620]
IC50 (Influenza A virus, H3N2, read-out: CPE H3N2 IC50 [μM]): 29 µM
inhibition at 50 µM [2]: 57.8%

O=C(c1ccc(-c2ccccc2)cn1)N(O)Cc1ccccc1 [drawing 215]
inhibition at 12 µM (Influenza A virus, H3N2, activity conc 12 (μM per method), read-out: CPE H3N2 reduction (%)): 13.4%

O=C(c1cc(C2CCCCC2)ccn1)N(O)Cc1ccccc1 [drawing 258]
inhibition at 5 µM [3]: -0.5%

CC(C)(C)OC(=O)N1CCN(c2ccnc(C(=O)N(O)Cc3ccccc3)c2)CC1
inhibition at 50 µM [4]: 34%

O=C(NO)c1cc(N2CCOCC2)ccn1 [drawing 212]
inhibition at 50 µM [4]: -7.1%

O=C(NOCc1ccccc1)c1cc2ccccc2cn1 [drawing 182]
inhibition at 5 µM [3]: -1.5%

CN1CC=C(c2ccnc(C(=O)N(O)Cc3ccccc3)c2)CC1 [drawing 260]
inhibition at 50 µM [4]: 10.6%

Cc1c(Cc2ccc(Cl)cc2)sc2nc(N)[nH]c(=O)c12 [SAV-7609]
CPE H3N2 (insoluble): solubility in the assay: reduction (%) insoluble

Cl.O=C(NO)c1cc(NS(=O)(=O)Cc2cc(Cl)cc(Cl)c2)ccn1 [drawing 276]
CPE H3N2 reduction (%): 9.3%

O=C(c1cc(-c2ccccc2)ccn1)N(O)Cc1ccccc1 [drawing 211]
inhibition at 10 µM [1]: -9.3%

CN(O)C(=O)c1cc(N2CCOCC2)ccn1
inhibition at 50 µM [4]: 5.7%

O=C(c1cc(C2=CCCCC2)ccn1)N(O)Cc1ccccc1 [drawing 257]
inhibition at 1 µM [1]: 3.4%

O=C(NO)c1cc(NS(=O)(=O)Cc2cccc3cccnc23)ccn1
inhibition at 50 µM [4]: 24.4%
IC50 [5]: 78 µM

CN(C)S(=O)(=O)c1cccc(-c2ccnc(C(=O)N(O)Cc3ccccc3)c2)c1 [drawing 233]
inhibition at 5 µM [3]: -1.8%

O=C(c1cc2ccccc2cn1)N(Cc1ccccc1)OCc1ccccc1 [drawing 179]
inhibition at 5 µM [3]: 1.3%

Cc1cccc(-c2ccc(C(=O)N(O)Cc3ccccc3)nc2)c1 [drawing 181]
inhibition at 10 µM [1]: 15.5%

CCONC(=O)c1ccc(-c2ccccc2)cn1 [drawing 173]
inhibition at 5 µM [3]: -3%

O=C(c1cc(N2CCCCC2)ccn1)N(O)CCCc1ccccc1 [drawing 203]
inhibition at 2 µM [1]: 7.7%

CCONC(=O)c1cc(N2CCOCC2)ccn1
inhibition at 50 µM [2]: 1.3%

O=C(c1cc(N2CCOCC2)ccn1)N(O)Cc1ccccc1 [drawing 241]
CPE H3N2 reduction (%): −3.4%

Cc1c(-c2ccccc2)sc2nc(NCCN)[nH]c(=O)c12 [SAV-7588]
inhibition at 5 µM [3]: 2.2%

O=C(NO)c1cc(N2CCCCC2)ccn1
inhibition at 5 µM [3]: -4.1%

O=C(c1cc(N2CCC(N3CCCCC3)CC2)ccn1)N(O)Cc1ccccc1
inhibition at 50 µM [4]: 18.8%

O=C(c1cc(-c2ccc(Cl)c(Cl)c2)ccn1)N(O)Cc1ccccc1 [drawing 220]
inhibition at 5 µM [3]: 8.1%

CON(C)C(=O)c1ccc2ccccc2n1
inhibition at 50 µM [4]: -1.2%

O=C(NO)c1ccc(N2CCCC2)cn1 [drawing 204]
inhibition at 50 µM [4]: -4.3%

O=C(NO)c1cc(NS(=O)(=O)Cc2cccc(F)c2)ccn1
inhibition at 50 µM [4]: -2.4%

CC(C)c1cccc(-c2ccc(C(=O)NO)nc2)c1 [drawing 205]
inhibition at 2 µM [1]: -2.1%

Cl.O=C(c1cc(N2CCOCC2)ccn1)N(O)Cc1ccccc1 [drawing 242]
CPE H3N2 reduction (%): 6.3%

O=C(c1cc(N2CCC(F)(F)CC2)ccn1)N(O)Cc1ccccc1
inhibition at 50 µM [4]: -3.2%

O=C(c1cc(N2CCC(F)(F)C2)ccn1)N(O)Cc1ccccc1
inhibition at 20 µM [1]: 4.6%

O=C(c1cc(NS(=O)(=O)Cc2ccc(F)cc2)ccn1)N(O)Cc1ccccc1
inhibition at 50 µM [4]: -1.1%

O=C(c1cc(C2=CC3CCC(C2)N3)ccn1)N(O)Cc1ccccc1 (stereo not shown) [drawing 283]
inhibition at 50 µM [4]: 5.49%

O=C(NOCc1ccccc1)c1cc(N2CCCCC2)ccn1 [drawing 187]
inhibition at 5 µM [3]: 1%

O=C(c1cc2ccccc2cn1)N(O)Cc1ccccc1 [drawing 200]
inhibition at 50 µM [4]: 34.2%

NC1CCN(c2ccnc(C(=O)N(O)Cc3ccccc3)c2)CC1
inhibition at 50 µM [4]: 3.2%

CCONC(=O)c1cccc(C)n1
inhibition at 50 µM [4]: -2.1%

CON(C)C(=O)c1cccc(C(=O)N(C)OC)n1
inhibition at 50 µM [4]: -0.3%

CCONC(=O)c1cc(NCC2CCN(Cc3ccccc3)CC2)ccn1
inhibition at 50 µM [4]: 14.8%

CN(OCc1ccccc1)C(=O)c1ccc(-c2ccccc2)cn1
inhibition at 50 µM [4]: -2.6%

O=C(NO)c1cc(NS(=O)(=O)Cc2cc(Cl)cc(Cl)c2)ccn1
inhibition at 20 µM [1]: 28.9%

CCONC(=O)c1ccc(-c2cccc(CN(C)CCCc3ccccc3)c2)cn1
inhibition at 20 µM [1]: 1.6%

O=C(c1cc(N2CCC3(CC2)OCCO3)ccn1)N(O)Cc1ccccc1 [drawing 235]
inhibition at 50 µM [4]: 9.5%

O=C(c1cc(NS(=O)(=O)Cc2cccc(Cl)c2)ccn1)N(O)Cc1ccccc1
inhibition at 50 µM [4]: 9.5%

O=C(c1cc(-c2ccccc2)ccn1)N(O)Cc1ccc(F)cc1 [drawing 223]
inhibition at 1 µM [1]: -3.2%

CN(c1ccnc(C(=O)NO)c1)S(=O)(=O)Cc1ccccc1
inhibition at 5 µM [3]: -1.7%

CON(C)C(=O)c1cccc(C)n1
inhibition at 50 µM [4]: -0.9%

O=C(NO)c1cc(NS(=O)(=O)Cc2ccc(Cl)cc2Cl)ccn1
inhibition at 50 µM [2]: 60.1%

O=C(NO)c1cc(NS(=O)(=O)Cc2ccccc2)ccn1
inhibition at 50 µM [4]: 5.1%

O=C(NOC(=O)c1cc(N2CCCCC2)ccn1)c1cc(N2CCCCC2)ccn1 [drawing 160]
inhibition at 50 µM [4]: 29%
IC50 [5]: 37 µM

Nc1ccccc1NC(=O)c1ccc(C(=O)NO)nc1
inhibition at 50 µM [4]: -5.53%

O=C(c1cc(NS(=O)(=O)Cc2cccc(F)c2)ccn1)N(O)Cc1ccccc1
inhibition at 50 µM [4]: 9.6%

CCONC(=O)c1cc(NCCCc2cccc(Cl)c2)ccn1 [drawing 168]
inhibition at 1 µM [1]: -0.3%

CN(C)CCNC(=O)c1cccc(-c2ccnc(C(=O)N(O)Cc3ccccc3)c2)c1 [drawing 230]
inhibition at 50 µM [4]: 8.9%

O=C(c1ccc(N2CCCCC2)cn1)N(O)Cc1ccccc1 [drawing 208]
inhibition at 5 µM [3]: -3.4%

Cc1c(-c2ccccc2)sc2nc(Nc3ccccc3)[nH]c(=O)c12 [SAV-7638]
inhibition at 5 µM (Influenza A virus, H3N2, read-out: CPE H3N2 reduction (%), activity conc 5 (μM per method)): 8.7%

O=C(c1cc(C2=CCCNC2)ccn1)N(O)Cc1ccccc1
inhibition at 50 µM [4]: 9.5%

O=C(NO)c1cc(-c2ccc(Cl)cc2)ccn1
inhibition at 5 µM [3]: 26.6%

O=C(c1cc(-c2cccc(CO)c2)ccn1)N(O)Cc1ccccc1 [drawing 240]
inhibition at 5 µM [3]: 7.7%

O=C(c1cc(NS(=O)(=O)Cc2ccccc2)ccn1)N(O)Cc1ccccc1 [drawing 209]
inhibition at 50 µM [4]: 6.2%

Cc1cccc(C(=O)N(C)OCc2ccccc2)n1
inhibition at 50 µM [4]: -2.3%

O=C(c1cc(NS(=O)(=O)Cc2cccc(C(F)(F)F)c2)ccn1)N(O)Cc1ccccc1
inhibition at 50 µM [4]: 22.4%

O=C(c1cc(N2CCC(F)CC2)ccn1)N(O)Cc1ccccc1
inhibition at 50 µM [4]: 34%

CC(C)c1cccc(-c2ccc(C(=O)N(O)CCc3ccccc3)nc2)c1 [drawing 207]
inhibition at 2 µM [1]: 2.1%

CC(C)(C)OC(=O)N1C2C=C(c3ccnc(C(=O)N(O)Cc4ccccc4)c3)CC1CC2 (stereo not shown)
inhibition at 2 µM [1]: -5.3%

O=C(NO)c1cc(NS(=O)(=O)Cc2ccccc2F)ccn1
inhibition at 50 µM [4]: -0.5%

O=C(NO)c1cc(NS(=O)(=O)Cc2ccc(Cl)c(Cl)c2)ccn1
inhibition at 50 µM [4]: 53.4%

CN1CCN(c2ccnc(C(=O)N(C)O)c2)CC1
inhibition at 50 µM [4]: 2.6%

O=C(c1cc(C2=CCNCC2)ccn1)N(O)Cc1ccccc1
inhibition at 50 µM [4]: 0.4%

CN(OCc1ccccc1)C(=O)c1cc2ccccc2cn1 [drawing 184]
inhibition at 50 µM [4]: 0.6%

N/C(=N\O)c1ccc(C(=O)NO)nc1
inhibition at 50 µM [4]: -4.8%

O=C(c1cc2ccccc2cn1)N(O)CCc1ccccc1 [drawing 202]
inhibition at 20 µM [1]: -1.8%
